Experimental data published in US8088819B2, “Derivatives of substituted 3-phenyl-1-(phenylthienyl)propan-1-ones and of 3-phenyl-1-(phenylfuranyl) propan-1-ones, preparation and use” (priority 2006, dated 2012).
pEC50: −log10 of the molar value.

What was measured:
[1] = target: T1, hPPARgamma (Homo sapiens, UniProt P37231); experiment: PPAR activation: Gal4-hPPARγ chimera luciferase transactivation in COS-7 cells, Method 2; type: cell-based; details: COS-7, 24 h, Method 2; for Emax: maximum percentage response relative to the reference rosiglitazone, read-out: hPPARgamma % max; for pEC50: 1% Ultroser, read-out: hPPARgamma EC50
T1 construct: expressed in transfected cells; host or cells: COS-7 (monkey kidney fibroblasts)
T1 sequence (P37231 238-503 limits assumed): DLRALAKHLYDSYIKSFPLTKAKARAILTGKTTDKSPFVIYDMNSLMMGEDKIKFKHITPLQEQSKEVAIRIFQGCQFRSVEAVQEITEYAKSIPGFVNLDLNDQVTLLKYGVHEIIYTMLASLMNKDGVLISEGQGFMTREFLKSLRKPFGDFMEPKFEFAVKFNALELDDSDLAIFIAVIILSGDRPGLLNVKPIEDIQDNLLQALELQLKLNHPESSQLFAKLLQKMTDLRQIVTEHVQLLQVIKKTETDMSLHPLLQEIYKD
Method: (§1) The activation of the PPARs was evaluated in vitro on a line of monkey kidney fibroblasts (COS-7) by measuring the transcriptional activity of chimeras constituted of the DNA binding domain of the Gal4 transcription factor of yeast and the ligand binding domain of the various PPARs.
Only the application of the transfection stage is slightly different. The details are presented below.
(§2) The adherent COS-7 cells are transfected with 40 μg of DNA per 225 cm^2 dish, with a pGal4-PPAR/Gal4(RE)_TkpGL3 ratio of 1/10, in the presence of 10% fetal calf serum. The cells are then detached and seeded in the absence of serum in 384-well plates (2×10^4 cells/well) and incubated for 4 hours at 37° C. The compounds are then diluted in a 96-well plate and transferred to the 384-well plate. Activation with the test compounds is carried out for an additional 24 h at 37° C. in the presence of 1% of Ultroser™ lipid-free synthetic serum (Biosepra). These last 2 stages are automated using a Genesis Freedom 200™ station (Tecan). At the end of the experiment, the cells are lysed and the luciferase activity is determined using the Steady-Lite™ HTS (Perkin Elmer) following the supplier's recommendations.

[2] = target: T2, hPPARdelta (Homo sapiens, UniProt Q03181); experiment: PPAR activation: Gal4-hPPARδ chimera luciferase transactivation in COS-7 cells, Method 2; type: cell-based; details: COS-7, 24 h; for pEC50: 1% Ultroser; for Emax: maximum percentage response relative to the reference GW501516, read-out: hPPARdelta % max
T2 construct: expressed in transfected cells; host or cells: COS-7 (monkey kidney fibroblasts)
T2 sequence (Q03181 211-439 limits assumed): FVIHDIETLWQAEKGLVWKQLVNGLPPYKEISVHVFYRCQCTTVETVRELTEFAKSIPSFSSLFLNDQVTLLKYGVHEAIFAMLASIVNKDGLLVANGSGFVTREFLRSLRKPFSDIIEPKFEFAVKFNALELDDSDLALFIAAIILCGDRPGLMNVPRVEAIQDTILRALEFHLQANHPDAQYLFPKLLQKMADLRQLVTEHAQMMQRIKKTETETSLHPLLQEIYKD
Method: as §1, with “PPARs. The compounds were tested at doses between 10^−5 and […] on the chimeras Gal4-PPARα, γ or δ, and the corresponding EC50 values were determined.” for “PPARs.”
(§3) The principle, the cells and the plasmids used for example 5 were also employed in this example. Only the application of the transfection stage is slightly different. The details are presented below.
as §2

[3] = target: T3, hPPARalpha (Homo sapiens, UniProt Q07869); experiment: PPAR activation: Gal4-hPPARα chimera luciferase transactivation in COS-7 cells, Method 2; type: cell-based; details: COS-7, 24 h; for pEC50: 1% Ultroser; for Emax: maximum percentage response relative to the reference phenofibric acid, read-out: hPPARalpha % max
T3 construct: expressed in transfected cells; host or cells: COS-7 (monkey kidney fibroblasts)
T3 sequence (Q07869 239-466 limits assumed): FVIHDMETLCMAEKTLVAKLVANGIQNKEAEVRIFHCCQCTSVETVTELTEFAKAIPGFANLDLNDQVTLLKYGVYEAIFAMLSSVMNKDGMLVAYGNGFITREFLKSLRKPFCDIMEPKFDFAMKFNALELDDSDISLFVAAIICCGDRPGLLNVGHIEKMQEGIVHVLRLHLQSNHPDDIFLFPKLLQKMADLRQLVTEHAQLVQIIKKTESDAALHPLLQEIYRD
Method: as §1, with “PPARs. The compounds were tested at doses between 10^−5 and […] on the chimeras Gal4-PPARα, γ or δ, and the corresponding EC50 values were determined.” for “PPARs.”
as §3, §2

[4] = system: target genes of PPARδ in murine myocytes (C2C12); experiment: Expression of target genes of PPARδ (PDK4, CPT1b, UCP2, UCP3) in murine myocytes, quantitative RT-PCR; type: cell-based; details: murine myocytes in vitro
Description: It is established that regulation of the expression of these genes is directly controlled by PPARδ in this cell type. The more the expression of the genes is increased, the greater the stimulating action of the compound according to the invention on metabolism in the muscle cells.
Cells from the murine cell line C2C12 (obtained from ECACC) are cultivated in DMEM medium (Gibco; 41965-039) with addition of 1% L-glutamine (Gibco; 25030), 1% of penicillin/streptomycin (VWR; BWSTL0022/100) and 10% decomplemented fetal calf serum (FCS. Gibco; 10270-106).
The cells are seeded on 24-well plates at a density of 50·10^3 cells/well. At confluence, the medium is replaced with a differentiating medium (basal medium with addition of 2% of horse serum (Gibco; 26050-088)), then incubated at 37° C. and 5% CO2 for 4 days in order to differentiate them to myocytes.
After 5 days of differentiation, the cells are put in a deprivation medium (basal medium without serum) for 6 hours. The cells are then treated with the compounds according to the invention in the deprivation medium. Compounds 2, 4, 7, 11, 39, 40, 46, 49 and 72 were in dose effect, corresponding to 1×, 10× and 100× their EC50 PPARδ. The compounds according to the invention were dissolved in dimethylsulfoxide (DMSO, Sigma; D5879). The cells were treated for 24 h at 37° C., 5% CO2. The effect of the compounds according to the invention was compared with the effect of DMSO alone.
After treatment, the total RNA is extracted from the cells using the NucleoSpine® 96 RNA kit (Macherey Nagel, Hoerdt, France) following the manufacturer's instructions.
1 μg of total RNA (quantified based on the UV spectrophotometer reading) was then reverse-transcribed to complementary DNA by reaction for 1 hour at 37° C. in a total volume of 30 μl containing buffer 1× (Invitrogen), 1.5 mM of DTT, 0.18 mM of dNTPs (Promega), 200 ng of pdN6 (Amersham), 30 U of RNase inhibitor (Promega) and 1 μl of MMLV-RT (Invitrogen).
The quantitative PCR experiments were carried out using the MyiQ Single-Color Real-Time PCR Detection System (Biorad, Marnes-la-Coquette, France) and were performed using the iQ SYBR Green Supermix kit following the supplier's recommendations, in 96-well plates, on 5 μl of diluted reverse-transcription reaction mixtures with a hybridization temperature of 60° C. Primer pairs specific to the PDK4, CPT1b, UCP2 and UCP3 genes under investigation were used:
The amount of fluorescence emitted is directly proportional to the amount of complementary DNA present at the start of the reaction and amplified during PCR. For each target investigated, a range is produced by successive dilutions of a pool constituted of a few microliters of various reverse-transcription reaction mixtures. The relative expression levels of each target are thus determined using the efficacy curves obtained with the points in the range.
The levels of expression of the genes of interest were then normalized relative to the level of expression of the reference gene 36B4 (whose specific primers are: sense primer: 5′-[…]-3′ (SEQ ID No. 19) and antisense primer: 5′-[…]-3′ (SEQ ID No. 20)). The induction factor, i.e. the ratio of the relative signal (induced by the compound according to the invention) to the mean of the relative values of the control group, was then calculated. The higher this factor, the greater the activating character of the compounds according to the invention with respect to gene expression. The final result is represented as the mean of the induction values in each experimental group.

Row | melting point [°C] | Emax [1] [%] | pEC50 [1] | pEC50 [2] | Emax [2] [%] | pEC50 [3] | Emax [3] [%] | Compound | expression of genes involved in carbohydrate and lipid metabolism and in thermoregulation [4]
1 | 171 to 172 | 62 | 6.07 | 7.15 | 107 | 6.82 | 43 | CSc1ccc(-c2ccc(C(=O)CCc3ccc(OC(C)(C)C(=O)O)c(Cl)c3Cl)s2)cc1 [Compound 54, 2-(2,3-dichloro-4-(3-(5-(4-(methylthio)phenyl)thien-2-yl)-3-oxo-propyl)phenoxy)-2-methylpropanoic acid] | 
2 | 88 to 90 | 2 |  | 5.33 | 34 | 5.55 | 25 | CC(C)OC(CCc1ccc(OC(C)(C)C(=O)O)c(Cl)c1Cl)c1ccc(-c2ccc(C(F)(F)F)cc2)s1 (stereo not shown) [Compound 55, 2-(2,3-dichloro-4-(3-isopropoxy-3-(5-(4-(trifluoromethyl)-phenyl)thien-2-yl)propyl)phenoxy)-2-methylpropanoic acid] | 
3 | 179 to 180 | 39 | 5.82 | 6.46 | 88 | 6.00 | 44 | CC(C)(Oc1ccc(CCC(=O)c2ccc(-c3ccccc3)s2)c(Cl)c1Cl)C(=O)O [Compound 57, 2-(2,3-dichloro-4-(3-oxo-3-(5-phenylthien-2-yl)propyl)phenoxy)-2-methylpropanoic acid] | 
4 | 130 to 131 | 57 | 6.64 | 7.52 | 107 |  | 47 | Cc1cc(CCC(=O)c2ccc(-c3ccc(C(F)(F)F)cc3)s2)ccc1OC(C)(C)C(=O)O [Compound 59, 2-methyl-2-(2-methyl-4-(3-oxo-3-(5-(4-(trifluoromethyl)phenyl)-thien-2-yl)propyl)phenoxy)propanoic acid] | 
5 |  | 44 | 5.10 | 6.74 | 97 | 5.38 | 46 | CC(C)(Oc1ccc(CCC(OCc2ccccc2)c2ccc(-c3ccc(C(F)(F)F)cc3)s2)c(F)c1F)C(=O)O (stereo not shown) [Compound 63, 2-(4-(3-(benzyloxy)-3-(5-(4-(trifluoromethyl)phenyl)thien-2-yl)-propyl)-2,3-difluorophenoxy)-2-methylpropanoic acid] | stimulating effects
6 | 154 to 155 | 37 | 5.32 | 6.44 | 75 | 8.00 | 45 | CC(C)(Oc1ccc(CCC(=O)c2ccc(-c3ccc(C(F)(F)F)cc3)s2)cc1)C(=O)O [Compound 67, 2-(4-(3-oxo-3-(5-(4-(trifluoromethyl)phenyl)thien-2-yl)propyl)-phenoxy)-2-methylpropanoic acid] | 
7 |  | 70 | 6.80 |  | 97 | 6.57 | 59 | COC(CCc1ccc(OC(C)(C)C(=O)O)c(Cl)c1Cl)c1ccc(-c2ccc(C(F)(F)F)cc2)o1 (stereo not shown) [Compound 72, 2-(2,3-dichloro-4-(3-methoxy-3-(5-(4-(trifluoromethyl)phenyl)fur-2-yl)propyl)phenoxy)-2-methylpropanoic acid] | stimulating effects
